# Experimental data from PMC4775225, “Bromodomain inhibition of the transcriptional coactivators CBP/EP300 as a therapeutic strategy to target the IRF4 network in multiple myeloma” (eLife, 2016).
# Tests used:
# [1] = target: CBP-bromodomain/BRD9 ZsGreen fusion protein (Homo sapiens, UniProt Q92793); test: cell-based
# CBP bromodomain = CBP bromodomain (Homo sapiens, UniProt Q92793); test: biochemical; conditions: read-out: DTm
# [2] = target: T1, CBP bromodomain (amino acids 1082–1197) (Homo sapiens, UniProt Q92793); test: AlphaLISA, acetylated peptide binding to CBP bromodomain
# T1 construct: His-Flag-tagged CBP bromodomain (amino acids 1082–1197)
# Experimental: Compound at varying concentrations were dispensed into 384 well Proxiplates (Perkin Elmer) using Echo technology (Labcyte, Inc.; Sunnyvale, CA). For CBP assays, 0.5 μM His-Flag-tagged CBP bromodomain (amino acids 1082–1197) was incubated with 0.003 μM H4-TetraAc-biotin for 20 min at room temperature in 1x reaction buffer (50 mM HEPES pH 7.5, 1 mM TCEP, 0.069 mM Brij-35, 150 mM NaCl, and 0.1 mg/ml BSA). Streptavidin acceptor beads and nickel donor beads (Perkin Elmer) were added to 15 μg/ml with a Combi Multidrop dispenser. Plates were sealed and incubated at 90 min in the dark at room temperature, and plates were read on an Envision plate reader (Perkin Elmer) according to manufacturer’s instructions. For the BET assays, the protocol was similar except that BET family bromodomains were used at 0.03 μM (BRD4-BD1) and incubated with 0.2 μM H4-TetraAc-biotin for 20 min in reaction buffer (40 mM HEPES pH7.0, 1 mM DTT, 0.069 mM Brij-35, 40 mM NaCl, and 0.1 mg/ml BSA). Streptavidin donor beads and Anti-Flag Acceptor beads (Perkin Elmer) were added to 10 μg/ml, and then plates were sealed and incubated in the dark for 60 min prior to reading on the Envision.
# [3] = target: T2, CBP bromodomain and histone H3.3 (Homo sapiens, UniProt Q92793); test: NanoBRET, CBP bromodomain/histone H3.3 in HEK293 cells; assay type: cell-based; conditions: 293 cells, CBP bromodomain and histone H3.3; n = 3 technical replicates ± SEM
# T2 construct: NanoBRET with the isolated CBP bromodomain and histone H3.3 in 293 cells; host or cells: HEK293
# Experimental: NanoBRET was carried out using the NanoBRET Protein:Protein Interaction System (Promega, Inc.; Madison, WI) according to the manufacturer’s instructions. Briefly, HEK293 cells were transiently co-transfected with a vector for histone H3.3-HaloTag and a NanoLuc tagged CBP bromodomain expression construct. Transfected cells were plated in 96 -well plates in the presence or absence of ligand, then treated with dose titrations of indicated compounds. Readings were performed on an Envision Plate Reader (Perkin Elmer, Inc.; Waltham, MA) and BRET readings were calculated by dividing the acceptor emission value (600 nm) by the donor emission value (460/50 nm).
# Nalm6 = test: Viability, resazurin, 6 days; assay type: cell-based; conditions: Homo sapiens, NALM-6, 144 h, Nalm6, ALL
# Experimental: Cells were plated at 5000–10000 cells per well of 96-well plates containing titrations of the compounds as indicated. After incubation, the cells were incubated with 500 μg/ml resazurin (Sigma) in PBS for 2–8 hr, and fluorescence was measured (Ex 530 nm, Em 590 nm). Cell cycle analysis was performed as described previously ([Mertz et al., 2011]). For visualization, DNA content histograms were generated with GraphPad Prism. Dose-response curves were generated by plotting the normalized percent growth, percent sub-G1 and percent increase in G0/G1 at each dose values. GI50 values were determined as the concentration at which viability was 50% of the DMSO value and calculated by a four-parameter non-linear regression model in GraphPad Prism.
# [4] = tested on: H3K18 and H3K27 acetylation in LP-1 cells; test: Western analysis of global histone acetylation; assay type: cell-based, human; conditions: LP-1, 16 hr
# Experimental: Whole cell extracts were prepared by lysis in RIPA buffer + EDTA (Boston Bioproducts, Inc.; Ashland, MA) with protease inhibitor cocktail (Roche Life Sciences; Indianapolis, IN). Extracts were subjected to SDS-PAGE and Western analysis with MYC (Cell Signaling (Danvers, MA) #5605), IRF4 (Cell Signaling #4964 or #4948), GAPDH (Life Technologies AM4300), CBP (Santa Cruz (Dallas, TX) sc-369), EP300 (Santa Cruz sc-584), or β-actin (Life Technologies AM4302) primary antibodies. For histone analysis, extracts were prepared by sulfuric acid extraction of permeablized nuclei, and extracted histones were subjected to SDS-PAGE and Western analysis with H3K18ac (Cell Signaling #9675), H3K27ac (EMD Millipore (Billerica, MA) 07–360), or H4 (Abcam (Cambridge, MA) 31830). Blots were incubated with DyLight conjugated secondary antibodies, imaged and quantified with a Licor fluorescence imager (Licor, Inc.; Lincoln, NE), or with HRP- conjugated secondary antibodies for ECL visualization.
# T1 sequence (Q92793 1082-1197): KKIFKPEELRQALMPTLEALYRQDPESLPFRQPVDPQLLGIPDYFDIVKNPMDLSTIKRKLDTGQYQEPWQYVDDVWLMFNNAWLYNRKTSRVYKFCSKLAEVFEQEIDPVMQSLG
# Chain of CBP-bromodomain/BRD9 ZsGreen fusion protein (Q92793 1085-1192): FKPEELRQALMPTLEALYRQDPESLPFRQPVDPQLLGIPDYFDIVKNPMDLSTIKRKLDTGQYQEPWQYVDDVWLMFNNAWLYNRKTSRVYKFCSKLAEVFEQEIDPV
# Chain of CBP-bromodomain/BRD9 ZsGreen fusion protein (Q9H8M2 with tags, fused parts or gaps partner): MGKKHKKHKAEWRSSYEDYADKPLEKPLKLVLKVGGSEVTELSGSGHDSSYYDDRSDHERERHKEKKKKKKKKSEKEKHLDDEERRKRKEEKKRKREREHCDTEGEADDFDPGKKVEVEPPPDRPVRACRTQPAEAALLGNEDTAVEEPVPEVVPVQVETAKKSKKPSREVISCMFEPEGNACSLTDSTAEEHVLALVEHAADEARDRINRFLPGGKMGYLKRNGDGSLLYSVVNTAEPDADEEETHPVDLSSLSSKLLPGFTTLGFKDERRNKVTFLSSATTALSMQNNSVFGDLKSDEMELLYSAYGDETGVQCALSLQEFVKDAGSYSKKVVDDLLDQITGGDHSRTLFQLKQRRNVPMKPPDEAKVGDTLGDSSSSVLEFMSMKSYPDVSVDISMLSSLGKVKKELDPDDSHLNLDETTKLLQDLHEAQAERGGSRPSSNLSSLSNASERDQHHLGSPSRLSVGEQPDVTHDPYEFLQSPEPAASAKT
# Chain of CBP bromodomain (Q92793 1085-1192 limits assumed): as the sequence (Q92793 1085-1192) above
# T2 sequence (Q92793 1085-1192 limits assumed): as the sequence (Q92793 1085-1192) above
SMILES,EC50 [1] [µM],ΔTm at 20 µM (CBP bromodomain) [°C],IC50 [2] [µM],"IC50 (μM), CBP BRET (EC50, NanoBRET) [3] [µM]",GI50 (Nalm6) [µM],changes in the global levels of H3K18 or H3K27 acetylation [4]
CCC(=O)N1CCOc2c(cc(-c3ccc(OC)c(OC)c3)cc2OC[C@H]2CCCN(C)C2)C1 [I-CBP112],1.7 ± 0.34,4.52,0.19 ± 0.02,0.25 ± 0.03,,
COc1ccc(CCc2nc3cc(-c4c(C)noc4C)ccc3n2C[C@H](C)N2CCOCC2)cc1Cl [SGC-CBP30],,,,,3.86,did not observe any significant changes
